Measurements published in US12011444B2, “N-substituted indole derivatives as PGE2 receptor modulators” (Idorsia Pharmaceuticals Ltd, priority 2015, dated 2024).

Columns and labels:
[1] = biological target: PTRGER4 (EP4) (Homo sapiens (Human), UniProt P35408); experiment: hEP4 b-arrestin assay (PathHunter HEK 293 PTGER4 b-arrestin cells); type: cell-based; conditions: hEP4 b-arrestin assay (values without asterisk)
Procedure, shortened: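 Stably transfected HEK293 cells carrying EP4–ProLink and β-arrestin 2–EA (β-gal fragment complementation), pre-incubated with compound 15 min at 37 °C, then stimulated with PGE2 (20 nM final) for 120 min at 37 °C. Chemiluminescence read after 1 h detection reagent at room temperature; activity per concentration expressed as percent of DMSO control.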

[2] = biological target: PTGER2 (EP2) (Homo sapiens (Human), UniProt P43116); experiment: hEP2 b-arrestin assay (PathHunter HEK 293 PTGER2 b-arrestin cells); type: cell-based; conditions: hEP2 b-arrestin assay (values without asterisk)
Procedure, shortened: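 HEK293 cells expressing ProLink-tagged EP2 and EA-fused β-arrestin 2 (enzyme fragment complementation) were seeded 24 h, pre-incubated with compound 15 min at 37 °C, then stimulated with 5 μM PGE2 (final) for 120 min.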

PTGER2 (EP2), sequence (P43116 whole entry, the tested form may be a part): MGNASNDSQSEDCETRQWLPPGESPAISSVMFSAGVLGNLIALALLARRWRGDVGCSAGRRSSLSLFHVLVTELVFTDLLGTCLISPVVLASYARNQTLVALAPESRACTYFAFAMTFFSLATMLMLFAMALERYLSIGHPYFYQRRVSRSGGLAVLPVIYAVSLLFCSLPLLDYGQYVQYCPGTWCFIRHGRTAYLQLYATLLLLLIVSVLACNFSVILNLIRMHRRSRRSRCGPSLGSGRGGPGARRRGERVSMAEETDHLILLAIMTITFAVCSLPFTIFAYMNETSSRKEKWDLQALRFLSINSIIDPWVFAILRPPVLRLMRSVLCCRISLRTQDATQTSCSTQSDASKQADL
PTRGER4 (EP4), sequence (P35408 whole entry, looked up, the tested form may be a part): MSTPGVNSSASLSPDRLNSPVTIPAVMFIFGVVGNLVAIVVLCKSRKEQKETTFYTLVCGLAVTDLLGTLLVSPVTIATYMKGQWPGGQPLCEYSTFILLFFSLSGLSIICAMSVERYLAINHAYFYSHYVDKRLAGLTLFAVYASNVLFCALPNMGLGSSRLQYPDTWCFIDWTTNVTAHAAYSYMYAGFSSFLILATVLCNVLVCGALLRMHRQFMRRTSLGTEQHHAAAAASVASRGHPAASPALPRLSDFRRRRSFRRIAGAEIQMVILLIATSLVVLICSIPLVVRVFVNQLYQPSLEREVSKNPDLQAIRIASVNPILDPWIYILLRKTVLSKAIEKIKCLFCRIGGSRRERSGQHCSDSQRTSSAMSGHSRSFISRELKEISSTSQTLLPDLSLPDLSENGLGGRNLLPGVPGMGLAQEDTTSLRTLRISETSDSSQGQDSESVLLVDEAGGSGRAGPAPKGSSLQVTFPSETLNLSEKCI

| Compound | IC50 [1] | IC50 [2] |
| --- | --- | --- |
| COc1ccc(F)c2c1cc(C)n2CCNc1cc(-c2ccc(C(=O)O)c(OC3CC4(COC4)C3)c2)ncn1 [Example 1039, 4-{6-[2-(7-Fluoro-4-methoxy-2-methyl-indol-1-yl)-ethylamino]-pyrimidin-4-yl}-2-(2-oxaspiro[3.3]hept-6-yloxy)-benzoic acid] | 224 nM | 104 nM |
| CCOc1cc(-c2cc(NCCn3c(C)cc4c(OC)ccc(F)c43)ncn2)ccc1NCC(=O)OC [Example 1042, (2-Ethoxy-4-{6-[2-(7-fluoro-4-methoxy-2-methyl-indol-1-yl)-ethylamino]-pyrimidin-4-yl}-phenylamino)-acetic acid methyl ester] | 57 nM | 11 nM |
| CCOc1cc(-c2cc(NCCn3c(C#N)cc4c(OC)ccc(F)c43)ncn2)sc1C(=O)OCC(=O)O [Example 1043, 5-{6-[2-(2-Cyano-7-fluoro-4-methoxy-indol-1-yl)-ethylamino]-pyrimidin-4-yl}-3-ethoxy-thiophene-2-carboxylic acid carboxymethyl ester] | 1 nM | 5 nM |
| CCOc1cc(-c2cc(NCCn3c(C#N)cc4c(OC)ccc(F)c43)ncn2)sc1C(=O)OCC(=O)N(C)C [Example 1044, 5-{6-[2-(2-Cyano-7-fluoro-4-methoxy-indol-1-yl)-ethylamino]-pyrimidin-4-yl}-3-ethoxy-thiophene-2-carboxylic acid dimethylcarbamoylmethyl ester] | 3 nM | 9 nM |
| CCCC(=O)OCOC(=O)c1sc(-c2cc(NCCn3c(C#N)cc4c(OC)ccc(F)c43)ncn2)cc1OCC [Example 1045, 5-{6-[2-(2-Cyano-7-fluoro-4-methoxy-indol-1-yl)-ethylamino]-pyrimidin-4-yl}-3-ethoxy-thiophene-2-carboxylic acid butyryloxymethyl ester] | 4 nM | 16 nM |
| CCOC(=O)OCOC(=O)c1sc(-c2cc(NCCn3c(C#N)cc4c(OC)ccc(F)c43)ncn2)cc1OCC [Example 1046, 5-{6-[2-(2-Cyano-7-fluoro-4-methoxy-indol-1-yl)-ethylamino]-pyrimidin-4-yl}-3-ethoxy-thiophene-2-carboxylic acid ethoxycarbonyloxymethyl ester] | 5 nM | 27 nM |
| CCOc1cc(-c2cc(NCCn3c(C#N)cc4c(OC)ccc(F)c43)ncn2)sc1C(=O)OCc1oc(=O)oc1C [Example 1047, 5-{6-[2-(2-Cyano-7-fluoro-4-methoxy-indol-1-yl)-ethylamino]-pyrimidin-4-yl}-3-ethoxy-thiophene-2-carboxylic acid 5-methyl-2-oxo-[1,3]dioxol-4-ylmethyl ester] | 3 nM | 5 nM |

The remaining lines, values ahead:

| IC50 [1] | IC50 [2] | Compound |
| --- | --- | --- |
| 100 nM | 60 nM | CCc1nc(-c2cc(NCCn3c(C)cc4c(OC)ccc(F)c43)ncn2)sc1C(=O)O [Example 1037, 4-Ethyl-2-{6-[2-(7-fluoro-4-methoxy-2-methyl-indol-1-yl)-ethylamino]-pyrimidin-4-yl}-thiazole-5-carboxylic acid] |
| 20 nM | 64 nM | COc1ccc(F)c2c1cc(C)n2CCNc1cc(-c2nc(C(C)(C)C)c(C(=O)O)s2)ncn1 [Example 1038, 4-tert-Butyl-2-{6-[2-(7-fluoro-4-methoxy-2-methyl-indol-1-yl)-ethylamino]-pyrimidin-4-yl}-thiazole-5-carboxylic acid] |
| 407 nM | 91 nM | CCOc1cc(-c2cc(NCCn3c(C)cc4c(OC)ccc(F)c43)ncn2)ccc1C(=O)CO [Example 1040, 1-(2-Ethoxy-4-{6-[2-(7-fluoro-4-methoxy-2-methyl-indol-1-yl)-ethylamino]-pyrimidin-4-yl}-phenyl)-2-hydroxy-ethanone] |
| 246 nM | 26 nM | COC(=O)Nc1ccc(-c2cc(NCCn3c(C)cc4c(OC)ccc(F)c43)ncn2)cc1 [Example 1041, (4-{6-[2-(7-Fluoro-4-methoxy-2-methyl-indol-1-yl)-ethylamino]-pyrimidin-4-yl}-phenyl)-carbamic acid methyl ester] |
